Results from PMC3830123 (Biomolecules & Therapeutics, 2013).

Legend:
Format in all cases: biochemical
[1] = target: T1, Rat liver mitochondrial MAO (MAO-B) (Rattus norvegicus, UniProt P19643); assay: MAO-B assay in vitro, benzylamine as substrate; conditions: IC50 values MAO-B, isolated compounds, Table 2
T1 sequence (P19643 1-520): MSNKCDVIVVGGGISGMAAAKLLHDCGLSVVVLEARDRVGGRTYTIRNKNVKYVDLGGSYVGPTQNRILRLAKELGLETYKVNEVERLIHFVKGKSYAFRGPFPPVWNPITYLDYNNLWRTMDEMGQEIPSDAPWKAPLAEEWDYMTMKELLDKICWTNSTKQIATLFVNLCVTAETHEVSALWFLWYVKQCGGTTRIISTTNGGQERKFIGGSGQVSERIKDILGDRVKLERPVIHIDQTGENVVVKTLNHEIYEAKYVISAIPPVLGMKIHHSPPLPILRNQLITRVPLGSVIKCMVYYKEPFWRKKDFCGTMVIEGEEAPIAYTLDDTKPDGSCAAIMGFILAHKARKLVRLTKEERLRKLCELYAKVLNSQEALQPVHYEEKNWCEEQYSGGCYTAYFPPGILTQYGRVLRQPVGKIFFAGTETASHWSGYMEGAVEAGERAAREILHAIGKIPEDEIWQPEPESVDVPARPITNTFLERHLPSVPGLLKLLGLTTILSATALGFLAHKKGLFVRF

[2] = target: T2, dopamine β-hydroxylase (DBH) (Homo sapiens, UniProt P09172); assay: DBH assay in vitro, tyramine as substrate
T2 sequence (P09172 1-617): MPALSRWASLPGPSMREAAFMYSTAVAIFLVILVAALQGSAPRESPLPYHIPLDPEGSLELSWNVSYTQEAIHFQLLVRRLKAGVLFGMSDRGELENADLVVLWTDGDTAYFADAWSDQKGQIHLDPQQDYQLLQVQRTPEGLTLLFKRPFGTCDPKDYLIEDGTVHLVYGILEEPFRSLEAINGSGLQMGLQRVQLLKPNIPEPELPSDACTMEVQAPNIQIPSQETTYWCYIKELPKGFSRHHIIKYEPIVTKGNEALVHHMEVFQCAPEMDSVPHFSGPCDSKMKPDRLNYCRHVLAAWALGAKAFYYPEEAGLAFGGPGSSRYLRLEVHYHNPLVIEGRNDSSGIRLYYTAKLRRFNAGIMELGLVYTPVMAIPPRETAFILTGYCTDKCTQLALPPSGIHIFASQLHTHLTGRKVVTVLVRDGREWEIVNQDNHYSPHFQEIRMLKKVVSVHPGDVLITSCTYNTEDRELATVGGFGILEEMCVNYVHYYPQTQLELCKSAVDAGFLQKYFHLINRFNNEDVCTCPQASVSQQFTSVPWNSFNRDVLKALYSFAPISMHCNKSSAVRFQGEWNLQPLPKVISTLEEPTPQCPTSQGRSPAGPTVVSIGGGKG

[3] = target: T3, Rat brain mitochondrial MAO (MAO-A) (Rattus norvegicus, UniProt P21396); assay: MAO-A assay in vitro, serotonin as substrate
T3 sequence (P21396 1-526): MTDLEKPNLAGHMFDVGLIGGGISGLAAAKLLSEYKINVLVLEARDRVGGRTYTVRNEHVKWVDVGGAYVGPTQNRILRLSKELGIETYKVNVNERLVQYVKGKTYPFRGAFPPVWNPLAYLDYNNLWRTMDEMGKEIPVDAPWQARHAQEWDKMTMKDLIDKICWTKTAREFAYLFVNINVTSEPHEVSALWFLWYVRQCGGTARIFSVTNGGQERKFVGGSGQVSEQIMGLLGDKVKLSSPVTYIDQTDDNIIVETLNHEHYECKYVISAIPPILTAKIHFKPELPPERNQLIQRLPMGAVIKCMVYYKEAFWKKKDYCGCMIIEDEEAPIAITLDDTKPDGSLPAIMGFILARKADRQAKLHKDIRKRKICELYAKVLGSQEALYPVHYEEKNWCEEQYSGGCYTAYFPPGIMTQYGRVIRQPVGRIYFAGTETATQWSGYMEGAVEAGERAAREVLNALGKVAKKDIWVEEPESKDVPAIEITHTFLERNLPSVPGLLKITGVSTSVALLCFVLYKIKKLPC

IC50 [1]: 43.9 µM
IC50 [2]: 516 µM
IC50 [3]: 43.4 µM
SMILES: CC(C)=CCC/C(C)=C/Cc1c(O)ccc(C(=O)/C=C/c2ccc(O)cc2)c1O [Xanthoangelol]
